Drawing on patent US12084458B2, “Substituted pyridines, pyridazines, and pyrimidines as TYK2 inhibitors” (Sudo Biosciences Limited, priority 2021, dated 2024), this text covers IC50 for eleven compounds.

Where only a bound is given, the exact number is not on record here.

Test [1] concerns HEK-Blue IFNα/β cells (IFNα-stimulated STAT1 SEAP reporter; TYK2 JH2). Description: HEK-Blue IFNα/β SEAP reporter assay for profiling TYK2 pseudokinase (JH2) inhibition. It is filed as cell-based. Conditions: Homo sapiens, HEK-Blue, 1 ng/mL human recombinant IFNα, read-out: IFNα (TYK2 inhibitory activity, IC50). The essentials:
(§1)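 Reporter cells were seeded in DMEM/10% heat-inactivated FBS and cultured 20-22 h at 37 °C. Compounds, serially diluted, were applied for 60 min before human recombinant IL-23 (10 ng/mL, 22-24 h) or IFNα (1 ng/mL, 16-18 h) was added. Secreted alkaline phosphatase was then quantified with QUANTI-Blue.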

The next test has as its target T1, TYK2 kinase domain (JH1) (Homo sapiens, UniProt P29597).
T1 construct: recombinant purified His or GST-tagged catalytic domain for each enzyme; made in house
T1 sequence (P29597 897-1176 limits assumed): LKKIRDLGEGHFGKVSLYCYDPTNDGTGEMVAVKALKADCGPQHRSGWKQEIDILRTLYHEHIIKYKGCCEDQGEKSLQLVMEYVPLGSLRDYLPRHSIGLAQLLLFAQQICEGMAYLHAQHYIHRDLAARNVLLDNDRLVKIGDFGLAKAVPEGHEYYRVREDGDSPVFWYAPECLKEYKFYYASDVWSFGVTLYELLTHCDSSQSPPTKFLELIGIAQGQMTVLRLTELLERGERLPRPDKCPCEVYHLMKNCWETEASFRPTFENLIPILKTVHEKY
In words: HTRF-based selectivity assay, TYK2 catalytic domain. It is filed as biochemical. Conditions: recombinant catalytic domain, ATP 20 μM. The protocol: (§2) Example B-2: HTRF-Based Selectivity Assay
(§3) The ability of compounds to inhibit the activity of JAK1, JAK2, JAK3 and TYK2 is measured using a recombinant purified His or GST-tagged catalytic domain for each enzyme (JAK1, JAK2 and TYK2 are generated in-house; JAK3 was purchased from Carna biosciences, Cat #08-046) in an HTRF format biochemical assay. The reactions employs a commercial peptide substrate from Cisbio (Cat #62TK0PEC). The basic assay protocol is as follows: first, 2.5 μL of diluted compounds (4×) in DMSO are dispensed into a 384-well Optiplate. Next, 2.5 μL of enzyme (final concentrations for enzymes are: TYK2—700 ng/mL, JAK1—80.6 ng/mL, JAK2—2.1 ng/mL and JAK3—171.8 ng/mL) is added and incubated at RT for 5-20 min. Finally, 5 μl of mixture of 2× ATP [Final concentration 20 μM for TYK2, 21.43 μM for JAK1, 14.7 μM for JAK2 and 2.12 μM for JAK3]+2× Substrate [Final concentration 217 nM for TYK2, 454.7 nM for JAK1, 200 nM for JAK2 and 257.4 nM for JAK3] is added to 384 well Optiplate. Composition of Kinase assay buffer used in the assay is as follows: HEPES 50 mM, EGTA 1 mM, MgCl2 10 mM, DTT 2 mM, Tween-20 0.01% and water. Then the plates are shaken and then incubated at 26.5° C. for 60 min.

The target in another test is T2, JAK2 kinase domain (JH1) (Homo sapiens, UniProt O60674).
T2 construct: recombinant purified His or GST-tagged catalytic domain for each enzyme; made in house
Description: HTRF-based selectivity assay, JAK2 catalytic domain. Conditions: recombinant catalytic domain, ATP 14.7 μM. Type of test: biochemical. The procedure:
as §2, §3
On the technique in general: Time-resolved FRET reads energy transfer from a long-lived donor to a nearby acceptor.

Test [2] concerns HEK-Blue IL-2 reporter cells (IL-2-stimulated STAT5 SEAP reporter). Description: HEK-Blue IL-2 SEAP reporter assay for determining selectivity. It is filed as cell-based. Conditions: 4 ng/mL human recombinant IL-2. The essentials: (§4)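 Cells were plated for 20-22 h, then pretreated with serially diluted compound for 60 min. They were stimulated for 24 h with 4 ng/mL human recombinant IL-2 or 50 ng/mL human recombinant IFNγ, and SEAP induction was read with QUANTI-Blue.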

Test [3] has as its system HEK-Blue IL-23 cells (IL-23-stimulated STAT3 SEAP reporter; TYK2 JH2). Description: HEK-Blue IL-23 SEAP reporter assay for profiling TYK2 pseudokinase (JH2) inhibition. Type of test: cell-based. Conditions: 10 ng/mL human recombinant IL-23, SEAP reporter, read-out: IL23 (TYK2 inhibitory activity, IC50). Summed up: as §1
For orientation: A reporter such as luciferase makes a cellular process visible.

Another test has as its target T3, JAK3 kinase domain (JH1) (Homo sapiens, UniProt P52333).
T3 construct: recombinant purified His or GST-tagged catalytic domain for each enzyme; purchased Carna biosciences 08-046
Description: HTRF-based selectivity assay, JAK3 catalytic domain. The note with it: recombinant catalytic domain, ATP 2.12 μM. It is filed as biochemical. The procedure:
as §2, §3

Test [4] has as its system HEK-Blue IFNγ reporter cells (IFNγ-stimulated STAT1 SEAP reporter). In words: HEK-Blue IFNγ SEAP reporter assay for determining selectivity. Type of test: cell-based. The note with it: Homo sapiens, HEK-Blue, 50 ng/mL human recombinant IFNγ, read-out: IFN-γ (SEAP selectivity, IC50). Summed up: as §4
For a further test, the target named is T4, JAK1 kinase domain (JH1) (Homo sapiens, UniProt P23458).
T4 construct: recombinant purified His or GST-tagged catalytic domain for each enzyme; made in house
In words: HTRF-based selectivity assay, JAK1 catalytic domain. It is filed as biochemical. Conditions: recombinant catalytic domain, ATP 21.43 μM. The procedure: as §2, §3

T3 sequence (P52333 822-1111 limits assumed): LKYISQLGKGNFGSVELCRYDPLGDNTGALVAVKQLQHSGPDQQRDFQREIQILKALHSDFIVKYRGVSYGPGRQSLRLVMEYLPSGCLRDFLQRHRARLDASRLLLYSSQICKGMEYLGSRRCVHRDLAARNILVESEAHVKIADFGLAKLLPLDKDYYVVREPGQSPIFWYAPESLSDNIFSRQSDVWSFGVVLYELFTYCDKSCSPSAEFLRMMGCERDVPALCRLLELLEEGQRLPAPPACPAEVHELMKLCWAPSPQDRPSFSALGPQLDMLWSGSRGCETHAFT
T2 sequence (O60674 849-1124 limits assumed): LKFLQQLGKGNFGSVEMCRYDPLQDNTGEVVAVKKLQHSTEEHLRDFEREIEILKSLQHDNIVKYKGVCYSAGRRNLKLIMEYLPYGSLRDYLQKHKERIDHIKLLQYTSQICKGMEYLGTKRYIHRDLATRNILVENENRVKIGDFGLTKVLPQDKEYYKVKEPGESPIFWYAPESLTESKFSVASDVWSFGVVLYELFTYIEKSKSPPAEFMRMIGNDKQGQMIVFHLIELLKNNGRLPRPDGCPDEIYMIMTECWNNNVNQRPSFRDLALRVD
T4 sequence (P23458 875-1153 limits assumed): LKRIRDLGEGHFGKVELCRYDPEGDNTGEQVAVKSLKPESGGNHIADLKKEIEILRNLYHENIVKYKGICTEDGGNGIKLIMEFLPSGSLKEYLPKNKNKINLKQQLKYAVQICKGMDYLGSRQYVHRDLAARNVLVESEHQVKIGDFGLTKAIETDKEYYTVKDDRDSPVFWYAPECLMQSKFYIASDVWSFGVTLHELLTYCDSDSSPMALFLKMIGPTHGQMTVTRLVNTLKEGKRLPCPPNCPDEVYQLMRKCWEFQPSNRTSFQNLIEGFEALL

`[2H]C([2H])([2H])NC(=O)c1nnc(NC(=O)C2CC2)cc1Nc1cccc2c1N(C)Cc1nc(C)nn1-2` [Compound 5, 6-(cyclopropanecarboxamido)-4-((2,5-dimethyl-4,5-dihydro-[1,2,4]triazolo[1,5-a]quinoxalin-6-yl)amino)-N-(methyl-d3)pyridazine-3-carboxamide]: the IC50 in test [1] was below 0.03 µM; on TYK2 kinase domain (JH1), above 1 µM; at JAK2 kinase domain (JH1) it was above 1 µM; in test [2] it was above 1 µM; in test [3] it was below 0.03 µM; at JAK3 kinase domain (JH1) it was above 1 µM. In addition, the IC50 in test [4] was 0.03 to 0.3 µM; on JAK1 kinase domain (JH1), above 1 µM.

Turning to `[2H]C([2H])([2H])NC(=O)c1cnc(NC(=O)C2CC2)cc1Nc1cccc2c1N(C)Cc1ncnn1-2` [Compound 6, 6-(cyclopropanecarboxamido)-N-(methyl-d3)-4-((5-methyl-4,5-dihydro-[1,2,4]triazolo[1,5-a]quinoxalin-6-yl)amino)nicotinamide], the IC50 in test [1] was below 0.03 µM; at TYK2 kinase domain (JH1), above 1 µM; at JAK2 kinase domain (JH1) it was above 1 µM; in test [2], above 1 µM; in test [3], below 0.03 µM; on JAK3 kinase domain (JH1) it was above 1 µM. For the same compound, the values for the IC50 (in test [4]; on JAK1 kinase domain (JH1)) were 0.3 to 1 µM and above 1 µM, respectively.

As to `[2H]C([2H])([2H])NC(=O)c1nnc(NC(=O)C2CC2)cc1Nc1cccc2c1N(C)Cc1ncnn1-2` [Compound 7, 6-(cyclopropanecarboxamido)-N-(methyl-d3)-4-((5-methyl-4,5-dihydro-[1,2,4]triazolo[1,5-a]quinoxalin-6-yl)amino)pyridazine-3-carboxamide], the IC50 in test [1] was 0.03 to 0.3 µM; on TYK2 kinase domain (JH1), above 1 µM; at JAK2 kinase domain (JH1), above 1 µM; in test [2], above 1 µM; in test [3], below 0.03 µM; on JAK3 kinase domain (JH1), above 1 µM. Also, the IC50 in test [4] is 0.03 to 0.3 µM; on JAK1 kinase domain (JH1) it was above 1 µM.

For the compound `[2H]C([2H])([2H])NC(=O)c1nnc(NC(=O)C2CC2)cc1Nc1cccc2c1N(C([2H])([2H])[2H])Cc1nn(C)nc1-2` [Compound 48, 6-(cyclopropanecarboxamido)-N-(methyl-d3)-4-((2-methyl-5-(methyl-d3)-4,5-dihydro-2H-[1,2,3]triazolo[4,5-c]quinolin-6-yl)amino)pyridazine-3-carboxamide], the IC50 in test [1] is below 0.03 µM; on TYK2 kinase domain (JH1) it was above 1 µM; at JAK2 kinase domain (JH1), above 1 µM; in test [2] it was 0.3 to 1 µM; in test [3], below 0.03 µM; on JAK3 kinase domain (JH1) it was above 1 µM. For the same compound, the IC50 was 0.03 to 0.3 µM in test [4] and above 1 µM on JAK1 kinase domain (JH1).

Consider `CNC(=O)c1nnc(NC(=O)C2CC2)cc1Nc1cccc2c1OCCn1cnnc1-2` [Compound 72, 6-(cyclopropanecarboxamido)-4-((5,6-dihydrobenzo[f][1,2,4]triazolo[4,3-d][1,4]oxazepin-8-yl)amino)-N-methylpyridazine-3-carboxamide], for which the IC50 in test [1] was above 1 µM; at TYK2 kinase domain (JH1) it was above 1 µM; on JAK2 kinase domain (JH1), 0.03 to 0.3 µM; in test [2], above 1 µM; in test [3], 0.3 to 1 µM; at JAK3 kinase domain (JH1) it was 0.3 to 1 µM. Besides, the IC50 (in test [4]; on JAK1 kinase domain (JH1)) was above 1 µM in each case.

For the compound `CNC(=O)c1nnc(Nc2ccc(F)cn2)cc1Nc1cccc2c1OCCn1cnnc1-2` [Compound 73, 4-((5,6-dihydrobenzo[f][1,2,4]triazolo[4,3-d][1,4]oxazepin-8-yl)amino)-6-((5-fluoropyridin-2-yl)amino)-N-methylpyridazine-3-carboxamide], the IC50 in test [1] was 0.3 to 1 µM; on TYK2 kinase domain (JH1), above 1 µM; on JAK2 kinase domain (JH1), 0.3 to 1 µM; in test [2], 0.3 to 1 µM; in test [3] it was 0.03 to 0.3 µM; on JAK3 kinase domain (JH1), above 1 µM. In addition, the IC50 in test [4] is 0.3 to 1 µM; on JAK1 kinase domain (JH1), above 1 µM.

Regarding `CNC(=O)c1nnc(Nc2ccc(F)cn2)cc1Nc1cccc2c1N(C)CCn1cnnc1-2` [Compound 76, 6-((5-fluoropyridin-2-yl)amino)-N-methyl-4-((7-methyl-6,7-dihydro-5H-benzo[f][1,2,4]triazolo[4,3-d][1,4]diazepin-8-yl)amino)pyridazine-3-carboxamide], the IC50 is 0.03 to 0.3 µM in test [1]; above 1 µM at TYK2 kinase domain (JH1); 0.3 to 1 µM on JAK2 kinase domain (JH1); above 1 µM in test [2]; below 0.03 µM in test [3]; 0.3 to 1 µM at JAK3 kinase domain (JH1). Also, the IC50 in test [4] was 0.3 to 1 µM; at JAK1 kinase domain (JH1), above 1 µM.

Turning to `CNC(=O)c1nnc(NC(=O)C2CC2)cc1Nc1cccc2c1N(C)CCn1cnnc1-2` [Compound 77, 6-(cyclopropanecarboxamido)-N-methyl-4-((7-methyl-6,7-dihydro-5H-benzo[f][1,2,4]triazolo[4,3-d][1,4]diazepin-8-yl)amino)pyridazine-3-carboxamide], the IC50 is 0.03 to 0.3 µM in test [1]; above 1 µM on TYK2 kinase domain (JH1); 0.03 to 0.3 µM on JAK2 kinase domain (JH1); above 1 µM in test [2]; below 0.03 µM in test [3]; 0.3 to 1 µM on JAK3 kinase domain (JH1). The IC50 in test [4] was 0.3 to 1 µM; on JAK1 kinase domain (JH1), above 1 µM.

`[2H]C([2H])([2H])NC(=O)c1cnc(Nc2ccc(F)cn2)cc1Nc1cccc2c1N(C)CCn1cnnc1-2` [Compound 79, 6-((5-fluoropyridin-2-yl)amino)-N-(methyl-d3)-4-((7-methyl-6,7-dihydro-5H-benzo[f][1,2,4]triazolo[4,3-d][1,4]diazepin-8-yl)amino)nicotinamide]: the IC50 is 0.03 to 0.3 µM in test [1]; above 1 µM at TYK2 kinase domain (JH1); above 1 µM on JAK2 kinase domain (JH1); below 0.03 µM in test [2]; 0.03 to 0.3 µM in test [3]; above 1 µM at JAK3 kinase domain (JH1). Further, the IC50 in test [4] was below 0.03 µM; at JAK1 kinase domain (JH1), above 1 µM.

As for `[2H]C([2H])([2H])NC(=O)c1cnc(Nc2cc(C)nc(C)n2)cc1Nc1cccc2c1N(C)CCn1cnnc1-2` [Compound 80, 6-((2,6-dimethylpyrimidin-4-yl)amino)-N-(methyl-d3)-4-((7-methyl-6,7-dihydro-5H-benzo[f][1,2,4]triazolo[4,3-d][1,4]diazepin-8-yl)amino)nicotinamide], the IC50 was 0.03 to 0.3 µM in test [1]; above 1 µM at TYK2 kinase domain (JH1); 0.03 to 0.3 µM on JAK2 kinase domain (JH1); above 1 µM in test [2]; 0.03 to 0.3 µM in test [3]; above 1 µM on JAK3 kinase domain (JH1). The IC50 (in test [4]; at JAK1 kinase domain (JH1)) was above 1 µM each time.

For `[2H]C([2H])([2H])NC(=O)c1cnc(NC(=O)C2CC2)cc1Nc1cc(F)cc2c1N(C)Cc1nc(C)nn1-2` [Compound 83, 6-(cyclopropanecarboxamido)-4-((8-fluoro-2,5-dimethyl-4,5-dihydro-[1,2,4]triazolo[1,5-a]quinoxalin-6-yl)amino)-N-(methyl-d3)nicotinamide], the IC50 was 0.03 to 0.3 µM in test [1]; above 1 µM at TYK2 kinase domain (JH1); above 1 µM at JAK2 kinase domain (JH1); above 1 µM in test [2]; below 0.03 µM in test [3]; above 1 µM on JAK3 kinase domain (JH1). The IC50 (in test [4]; on JAK1 kinase domain (JH1)) was above 1 µM throughout.

What is called IC50 is the concentration that inhibits the measured activity by half.
